Positions of bridges follow the written chain, without caps; N, C: chain ends. Non-standard residues stand in square brackets, D forms with d. Residues, ends and D or L forms follow the SMILES beside them. Phe(3-Me) = Cc1cccc(C[C@H](N)C(=O)O)c1; Cit = NC(=O)NCCC[C@H](N)C(=O)O; Ahp(2) = CCCCC[C@H](N)C(=O)O; NMeNle = CCCC[C@H](NC)C(=O)O; NHexGly = CCCCCCNCC(=O)O; Nle = CCCC[C@H](N)C(=O)O; Orn = NCCC[C@H](N)C(=O)O
Biological target: T1, mouse VISTA (mVISTA) (Mus musculus, UniProt Q9D659)
T1 construct: expressed in transfected cells; host or cells: Human embryonic kidney 293T cells
T1 sequence (Q9D659 33-308): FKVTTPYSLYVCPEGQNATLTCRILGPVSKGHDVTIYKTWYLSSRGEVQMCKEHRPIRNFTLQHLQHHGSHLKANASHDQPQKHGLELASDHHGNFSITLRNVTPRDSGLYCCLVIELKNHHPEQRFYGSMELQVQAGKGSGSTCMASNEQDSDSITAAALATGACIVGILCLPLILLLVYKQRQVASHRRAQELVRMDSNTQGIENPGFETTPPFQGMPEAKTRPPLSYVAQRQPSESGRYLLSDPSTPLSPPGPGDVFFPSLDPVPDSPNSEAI
Assay: Cell-Based Binding High-Content Assay For mVISTA (HC CBA mVISTA)
Conditions: the 19th table, scaffold drawing 22; read-out: HC CBA mVISTA IC50
Summary of the method: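 mVISTA-293T, 4,000 cells/well; cpd ± washout step; biotin-peptide 2 nM final, 30 min RT; SA-Alexa 647 30 min; formaldehyde/Hoechst fix; HCS imaging; 4PL IC50.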

SMILES	IC50
CCCCCCN1CC(=O)N[C@@H](Cc2ccc(O)cc2)C(=O)N[C@@H](CCCC)C(=O)NCC(=O)N[C@@H](CCCNC(=N)N)C(=O)N[C@@H](CC(C)C)C(=O)N[C@@H](CCCCC)C(=O)N2CCC[C@H]2C(=O)N[C@@H](C(C)C)C(=O)N[C@@H](CC(=O)O)C(=O)N[C@H](C(=O)N[C@@H](CO)C(=O)O)CSCC(=O)N[C@@H](Cc2cccc(C)c2)C(=O)N[C@@H](Cc2ccc(O)cc2)C(=O)N[C@@H](CC(=O)O)C1=O [compound 1435] ({CH2CO}-[Phe(3-Me)]YD[NHexGly]Y[Nle]GRL[Ahp(2)]PVDCS-OH; thioether N-14)	9.4 nM
CCCCCCN1CC(=O)N[C@@H](Cc2ccc(O)cc2)C(=O)N[C@@H](CCCC)C(=O)N[C@@H](CC(=O)O)C(=O)N[C@@H](CCCN)C(=O)N[C@@H](CC(C)C)C(=O)N[C@@H](CCCCC)C(=O)N2CCC[C@H]2C(=O)N[C@@H](C(C)C)C(=O)N[C@@H](CC(=O)O)C(=O)N[C@H](C(=O)N[C@@H](CO)C(N)=O)CSCC(=O)N[C@@H](Cc2cccc(C)c2)C(=O)N[C@@H](Cc2ccc(O)cc2)C(=O)N[C@@H](CC(=O)O)C1=O [compound 1436] ({CH2CO}-[Phe(3-Me)]YD[NHexGly]Y[Nle]D[Orn]L[Ahp(2)]PVDCS-NH2; thioether N-14)	10.6 nM
CCCCCCN1CC(=O)N[C@@H](Cc2ccc(O)cc2)C(=O)N[C@@H](CCCC)C(=O)N[C@@H](CC(=O)O)C(=O)N[C@@H](CCCNC(=N)N)C(=O)N[C@@H](CC(C)C)C(=O)N[C@@H](CCCCC)C(=O)N2CCC[C@H]2C(=O)N[C@@H](C(C)C)C(=O)N[C@@H](CC(=O)O)C(=O)N[C@H](C(=O)N[C@@H](CO)C(N)=O)CSCC(=O)N[C@@H](Cc2cccc(C)c2)C(=O)N[C@@H](Cc2ccc(O)cc2)C(=O)N[C@@H](CC(=O)O)C1=O [compound 1437] ({CH2CO}-[Phe(3-Me)]YD[NHexGly]Y[Nle]DRL[Ahp(2)]PVDCS-NH2; thioether N-14)	18.2 nM
CCCCCCN1CC(=O)N[C@@H](Cc2ccc(O)cc2)C(=O)N[C@@H](CCCC)C(=O)N[C@@H](CC(=O)O)C(=O)N[C@@H](CCCNC(N)=O)C(=O)N(C)[C@@H](CCCC)C(=O)N[C@@H](CCCCC)C(=O)N2CCC[C@H]2C(=O)N[C@@H](C(C)C)C(=O)N[C@@H](CC(=O)O)C(=O)N[C@H](C(=O)N[C@@H](CC(=O)O)C(N)=O)CSCC(=O)N[C@@H](Cc2cccc(C)c2)C(=O)N[C@@H](Cc2c[nH]c3ccccc23)C(=O)N[C@@H](CC(=O)O)C1=O [compound 1438] ({CH2CO}-[Phe(3-Me)]WD[NHexGly]Y[Nle]D[Cit][NMeNle][Ahp(2)]PVDCD-NH2; thioether N-14)	22.4 nM
CCCCCCN1CC(=O)N[C@@H](Cc2ccc(O)cc2)C(=O)N[C@@H](CCCC)C(=O)N[C@@H](CC(=O)O)C(=O)N[C@@H](CCCN)C(=O)N(C)[C@@H](CCCC)C(=O)N[C@@H](CCCCC)C(=O)N2CCC[C@H]2C(=O)N[C@@H](C(C)C)C(=O)N[C@@H](CC(=O)O)C(=O)N[C@H](C(=O)N[C@@H](CC(=O)O)C(N)=O)CSCC(=O)N[C@@H](Cc2cccc(C)c2)C(=O)N[C@@H](Cc2c[nH]c3ccccc23)C(=O)N[C@@H](CC(=O)O)C1=O [compound 1439] ({CH2CO}-[Phe(3-Me)]WD[NHexGly]Y[Nle]D[Orn][NMeNle][Ahp(2)]PVDCD-NH2; thioether N-14)	9.3 nM
CCCCCCN1CC(=O)N[C@@H](Cc2ccc(O)cc2)C(=O)N[C@@H](CCCC)C(=O)N[C@@H](CC(=O)O)C(=O)N[C@@H](CCCNC(=N)N)C(=O)N(C)[C@@H](CCCC)C(=O)N[C@@H](CCCCC)C(=O)N2CCC[C@H]2C(=O)N[C@@H](C(C)C)C(=O)N[C@@H](CC(=O)O)C(=O)N[C@H](C(=O)N[C@@H](CC(=O)O)C(N)=O)CSCC(=O)N[C@@H](Cc2cccc(C)c2)C(=O)N[C@@H](Cc2c[nH]c3ccccc23)C(=O)N[C@@H](CC(=O)O)C1=O [compound 1440] ({CH2CO}-[Phe(3-Me)]WD[NHexGly]Y[Nle]DR[NMeNle][Ahp(2)]PVDCD-NH2; thioether N-14)	14.8 nM
CCCCCCN1CC(=O)N[C@@H](Cc2ccc(O)cc2)C(=O)N[C@@H](CCCCC)C(=O)N[C@@H](CC(N)=O)C(=O)N[C@@H](CCCNC(=N)N)C(=O)N(C)[C@@H](CCCC)C(=O)N[C@@H](CCCCC)C(=O)N2CCC[C@H]2C(=O)N[C@@H](C(C)C)C(=O)N[C@@H](CC(=O)O)C(=O)N[C@H](C(=O)NCC(=O)O)CSCC(=O)N[C@@H](Cc2cccc(C)c2)C(=O)N[C@@H](Cc2c[nH]c3ccccc23)C(=O)N[C@@H](CC(=O)O)C1=O [compound 1441] ({CH2CO}-[Phe(3-Me)]WD[NHexGly]Y[Ahp(2)]NR[NMeNle][Ahp(2)]PVDCG-OH; thioether N-14)	10.2 nM
CCCCCCN1CC(=O)N[C@@H](Cc2ccc(O)cc2)C(=O)N[C@@H](CCCC)C(=O)N[C@@H](CC(N)=O)C(=O)N[C@@H](CCCNC(=N)N)C(=O)N(C)[C@@H](CCCC)C(=O)N[C@@H](CCCCC)C(=O)N2CCC[C@H]2C(=O)N[C@@H](C(C)C)C(=O)N[C@@H](CC(=O)O)C(=O)N[C@H](C(=O)NCC(=O)O)CSCC(=O)N[C@@H](Cc2cccc(C)c2)C(=O)N[C@@H](Cc2c[nH]c3ccccc23)C(=O)N[C@@H](CC(=O)O)C1=O [compound 1442] ({CH2CO}-[Phe(3-Me)]WD[NHexGly]Y[Nle]NR[NMeNle][Ahp(2)]PVDCG-OH; thioether N-14)	27.7 nM
CCCCCCN1CC(=O)N[C@@H](Cc2ccc(O)cc2)C(=O)N[C@@H](CCCC)C(=O)N[C@@H](CC(N)=O)C(=O)N[C@@H](CCCNC(N)=O)C(=O)N(C)[C@@H](CCCC)C(=O)N[C@@H](CCCCC)C(=O)N2CCC[C@H]2C(=O)N[C@@H](C(C)C)C(=O)N[C@@H](CC(=O)O)C(=O)N[C@H](C(=O)NCC(=O)O)CSCC(=O)N[C@@H](Cc2cccc(C)c2)C(=O)N[C@@H](Cc2c[nH]c3ccccc23)C(=O)N[C@@H](CC(=O)O)C1=O [compound 1443] ({CH2CO}-[Phe(3-Me)]WD[NHexGly]Y[Nle]N[Cit][NMeNle][Ahp(2)]PVDCG-OH; thioether N-14)	21.2 nM
CCCCCCN1CC(=O)N[C@@H](Cc2ccc(O)cc2)C(=O)N[C@@H](CCCCC)C(=O)N[C@@H](CC(N)=O)C(=O)N[C@@H](CCCNC(=N)N)C(=O)N(C)[C@@H](CCCC)C(=O)N[C@@H](CCCCC)C(=O)N2CCC[C@H]2C(=O)N[C@@H](C(C)C)C(=O)N[C@@H](CC(=O)O)C(=O)N[C@H](C(=O)N[C@@H](CO)C(=O)O)CSCC(=O)N[C@@H](Cc2cccc(C)c2)C(=O)N[C@@H](Cc2c[nH]c3ccccc23)C(=O)N[C@@H](CC(=O)O)C1=O [compound 1444] ({CH2CO}-[Phe(3-Me)]WD[NHexGly]Y[Ahp(2)]NR[NMeNle][Ahp(2)]PVDCS-OH; thioether N-14)	13.3 nM
CCCCCCN1CC(=O)N[C@@H](Cc2ccc(O)cc2)C(=O)N[C@@H](CCCC)C(=O)N[C@@H](CC(=O)O)C(=O)N[C@@H](CCCNC(=N)N)C(=O)N(C)[C@@H](CCCC)C(=O)N[C@@H](CCCCC)C(=O)N2CCC[C@H]2C(=O)N[C@@H](C(C)C)C(=O)N[C@@H](CC(=O)O)C(=O)N[C@H](C(=O)N[C@@H](CO)C(N)=O)CSCC(=O)N[C@@H](Cc2cccc(C)c2)C(=O)N[C@@H](Cc2c[nH]c3ccccc23)C(=O)N[C@@H](CC(=O)O)C1=O [compound 1445] ({CH2CO}-[Phe(3-Me)]WD[NHexGly]Y[Nle]DR[NMeNle][Ahp(2)]PVDCS-NH2; thioether N-14)	9.9 nM
CCCCCCN1CC(=O)N[C@@H](Cc2ccc(O)cc2)C(=O)N[C@@H](CCCC)C(=O)N[C@@H](CC(=O)O)C(=O)N[C@@H](CCCN)C(=O)N(C)[C@@H](CCCC)C(=O)N[C@@H](CCCCC)C(=O)N2CCC[C@H]2C(=O)N[C@@H](C(C)C)C(=O)N[C@@H](CC(=O)O)C(=O)N[C@H](C(=O)N[C@@H](CO)C(N)=O)CSCC(=O)N[C@@H](Cc2cccc(C)c2)C(=O)N[C@@H](Cc2c[nH]c3ccccc23)C(=O)N[C@@H](CC(=O)O)C1=O [compound 1446] ({CH2CO}-[Phe(3-Me)]WD[NHexGly]Y[Nle]D[Orn][NMeNle][Ahp(2)]PVDCS-NH2; thioether N-14)	9.1 nM
CCCCCCN1CC(=O)N[C@@H](Cc2ccc(O)cc2)C(=O)N[C@@H](CCCC)C(=O)N[C@@H](CC(=O)O)C(=O)N[C@@H](CCCNC(N)=O)C(=O)N(C)[C@@H](CCCC)C(=O)N[C@@H](CCCCC)C(=O)N2CCC[C@H]2C(=O)N[C@@H](C(C)C)C(=O)N[C@@H](CC(=O)O)C(=O)N[C@H](C(=O)N[C@@H](CC(=O)O)C(N)=O)CSCC(=O)N[C@@H](Cc2cccc(C)c2)C(=O)N[C@@H](Cc2ccc(O)cc2)C(=O)N[C@@H](CC(=O)O)C1=O [compound 1447] ({CH2CO}-[Phe(3-Me)]YD[NHexGly]Y[Nle]D[Cit][NMeNle][Ahp(2)]PVDCD-NH2; thioether N-14)	15.3 nM
CCCCCCN1CC(=O)N[C@@H](Cc2ccc(O)cc2)C(=O)N[C@@H](CCCC)C(=O)N[C@@H](CC(=O)O)C(=O)N[C@@H](CCCNC(=N)N)C(=O)N(C)[C@@H](CCCC)C(=O)N[C@@H](CCCCC)C(=O)N2CCC[C@H]2C(=O)N[C@@H](C(C)C)C(=O)N[C@@H](CC(=O)O)C(=O)N[C@H](C(=O)N[C@@H](CC(=O)O)C(N)=O)CSCC(=O)N[C@@H](Cc2cccc(C)c2)C(=O)N[C@@H](Cc2ccc(O)cc2)C(=O)N[C@@H](CC(=O)O)C1=O [compound 1448] ({CH2CO}-[Phe(3-Me)]YD[NHexGly]Y[Nle]DR[NMeNle][Ahp(2)]PVDCD-NH2; thioether N-14)	14.2 nM
CCCCCCN1CC(=O)N[C@@H](Cc2ccc(O)cc2)C(=O)N[C@@H](CCCC)C(=O)N[C@@H](CC(=O)O)C(=O)N[C@@H](CCCN)C(=O)N(C)[C@@H](CCCC)C(=O)N[C@@H](CCCCC)C(=O)N2CCC[C@H]2C(=O)N[C@@H](C(C)C)C(=O)N[C@@H](CC(=O)O)C(=O)N[C@H](C(=O)N[C@@H](CC(=O)O)C(N)=O)CSCC(=O)N[C@@H](Cc2cccc(C)c2)C(=O)N[C@@H](Cc2ccc(O)cc2)C(=O)N[C@@H](CC(=O)O)C1=O [compound 1449] ({CH2CO}-[Phe(3-Me)]YD[NHexGly]Y[Nle]D[Orn][NMeNle][Ahp(2)]PVDCD-NH2; thioether N-14)	10.8 nM
